Patent publication US7812121B2 (priority 2006, dated 2010)
Entries after “also recorded” stand apart in the source; their conditions may differ.

What was measured:
[1] = test system: CD1 mice; experiment: Mucosal weight gain in small intestine, 10 days daily s.c. dosing; type: in vivo
Description: Afterwards, the mice were euthanized and the small intestines were removed, flushed with saline, and processed as described below.
(§1) Specifically, 4 cm sections were harvested: (1) immediately distal to the pylorus (duodenum), (2) starting 2 cm distal of the ligament of Treitz (jejunum), and (3) immediately proximal to the cecum (ileum). The remaining small intestine from ˜6 cm distal of the ligament of Treitz to 4 cm proximal to the cecum was used to prepare mucosal scrapings. From the proximal and distal ends of the remnant, an equal distance was removed until a 15 cm section remained, the remnant was cut longitudinally, rinsed, and the mucosal layer was removed using the short end of a glass microscope slide. The wet weight of the intact intestinal segments and mucosa was measured.

[2] = SEC-SLS solution molecular weight / self-association; type: physicochemical; conditions: PBS (pH 7.5), 1 mg/ml
Method: Solution molecular weight of the peptides was measured by SEC-SLS. Briefly, peptide solutions in PBS (pH 7.5) at 0.4 to 2.0 mg/mL were fractionated over a Superdex peptide column (Amersham Pharmacia). The eluted peaks were monitored by static light scattering at 690 nm and solution molecular weight was determined at UV 280 nm using the Astra software package (Wyatt Inc.).

[3] = CD spectra secondary structure; type: physicochemical; conditions: 0.2 mg/mL peptide in PBS, 25° C.
Method: The secondary structures of tested peptides were determined using 0.2 mg/mL peptide solutions in PBS. Briefly, CD spectra were collected in triplicate at 1 nm intervals at 25° C. in 0.1 cm path length cell. Secondary structures were determined by fitting of the CD spectra using CD spectra software (CD Spectra Deconvolution software 2.1). All tested peptides contained peaks corresponding to the presence of alpha helices.

[4] = test system: normal mice; experiment: Upper gastrointestinal transit, carmine dye technique; type: in vivo; conditions: 50 μg/mouse daily s.c. for 10 days, 20-minute test period, vs PBS vehicle
Method: To test the effects of A2G-GLP-2 on upper gastrointestinal transit in normal mice, mice were randomly assigned to 2 groups (14 animals per test group). Each group received daily subcutaneous injection (total volume […]) of either A2G-GLP-2 peptide (50 μg/mouse) or the phosphate-buffered saline vehicle for 10 consecutive days.
On the day of study, upper gastrointestinal transit was measured using the carmine dye technique. Mice were fed a test meal of 0.25 ml of a 6% (w/v) solution of carmine cochineal powder mixed into 0.5% (w/v) methylcellulose administered intragastrically by an 18 gauge curved feeding tube. Following oral test meal administration, mice were replaced into their home cages. Twenty minutes after marker meal administration, mice were rapidly euthanized by cervical dislocation and the entire gastrointestinal tract was excised starting from the distal colon and working towards the gastric pylorus. […] The linear distance traversed by the carmine dye front through the small intestine was measured together with the total length of the small bowel. Upper gastrointestinal transit was expressed as the percentage of the entire small intestine traversed by the carmine dye front during the 20-minute test period; % small intestine traveled=[distance traversed by dye front through small intestine (cm)/entire small intestine length (cm)×100].

[5] = Pharmacokinetics in mice (TRF assay of active mimetibody); type: in vivo
Description: Blood was collected at different time points into citrate buffer containing protease inhibitors to minimize the possibility of ex vivo degradation and plasma was separated by centrifugation.
A time resolved fluorescence (TRF) assay was used to measure active mimetibody. Active mimetibody reflects the intact N-terminus of the peptide still attached to the Fc region of the mimetibody.

[6] = test system: mice; experiment: Pharmacodynamics, dosing regimens, 11 day study; type: in vivo
Description: as §1
The duration of the study was 11 days and tissue was processed as described in Example 4.

[7] = test system: normal mice; experiment: Upper gastrointestinal transit, FITC-dextran method; type: in vivo; conditions: 30 minute test; for upper gastrointestinal transit: single injection 4 mg/kg 4 days before, 4 mg/kg
Method: On the day of study, upper gastrointestinal transit was measured using the FITC-dextran method. This method provides both, a measure of gastrointestinal transit and a readout of the pattern of distribution of the test meal along the gastrointestinal tract. Mice were fed a test meal of […] of FITC-dextran solution (5 mg/ml of 70,000 molecular weight dextran conjugated to fluorescein-isothiocyanate in 0.5% methylcellulose/deionized water) administered intragastrically by an 18 gauge curved feeding tube. Following oral administration of the FITC-dextran test meal, mice were returned to their home cages. It was shown that a 30 min test period was the optimum duration for detecting accelerated transit, while a 45 min test period was optimum for detecting delayed transit. Following the appropriate test period, mice were sacrificed by carbon dioxide exposure. The entire gastrointestinal tract from the lower esophageal sphincter to the terminal colon was removed. The bowel segments were opened along the mesenteric border. The tissue and luminal contents of the stomach, 10 equal segments of small intestine, the cecum, and 3 equal segments of colon were placed in individual Eppendorf tubes containing 1 ml of PBS. The tissue was vigorously mixed on a table-top vortex, and solid materials were pelleted by centrifugation. Aliquots of the cleared supernatant were read in duplicate on a 96-well fluorescence plate reader to quantify the magnitude of the fluorescent signal in each segment of bowel. These values were used to calculate the Geometric Center (GC), which is defined as the weighted average distribution of the fluorescent signal along the gastrointestinal tract: GC=Σ(% of total fluorescent signal per segment×segment number)/100. Higher values represent faster rates of transit on scale of 1 to 15. […] The mimetibody-induced shift in the distribution pattern of FITC-dextran is shown in the upper panel. […] The GC is calculated in the lower panel for statistical comparison.

[8] = SEC-SLS solution molecular weight / self-association; type: physicochemical; conditions: purified mimetibody
[9] = test system: CD-1 mice; experiment: Gastrointestinal transit in post-operative inflammatory ileus; type: in vivo; conditions: 2 mg/kg one hour before surgery, FITC-dextran 48 hr after operation, 45 minutes
Method: On the day of study, upper gastrointestinal transit was measured using the FITC-dextran method. This method provides both, a measure of gastrointestinal transit and a readout of the pattern of distribution of the test meal along the gastrointestinal tract. Mice were fed a test meal of […] of FITC-dextran solution (5 mg/ml of 70,000 molecular weight dextran conjugated to fluorescein-isothiocyanate in 0.5% methylcellulose/deionized water) administered intragastrically by an 18 gauge curved feeding tube. Following oral administration of the FITC-dextran test meal, mice were returned to their home cages. It was shown that a 30 min test period was the optimum duration for detecting accelerated transit, while a 45 min test period was optimum for detecting delayed transit. Following the appropriate test period, mice were sacrificed by carbon dioxide exposure. The entire gastrointestinal tract from the lower esophageal sphincter to the terminal colon was removed. […] Aliquots of the cleared supernatant were read in duplicate on a 96-well fluorescence plate reader to quantify the magnitude of the fluorescent signal in each segment of bowel. […] The GC is calculated in the lower panel for statistical comparison. […]
All mice received an oral test meal of FITC-dextran 48 hr after the operation. Gastrointestinal transit was determined 45 minutes after oral feeding. […]

[10] = test system: mice; experiment: Myeloperoxidase histochemistry of intestinal muscularis in post-operative inflammatory ileus; type: in vivo; conditions: 2 mg/kg one hour before surgery, tissue 48 hr after operation
Method: Myeloperoxidase histochemistry was performed on tissues harvested from the mid-small bowel of the mice 48 hr after the operation.
Briefly, segments of mid-small bowel were collected from the centrifuge tubes described in Example 12. Whole mounts of the muscle layer were prepared by pinning the tissue flat in a Sylgard® lined Petri dish and stretching the tissue to 2 times its length and 1.5 times its width. The mucosa was removed by fine dissection. The muscularis whole mounts were then fixed with 100% ethanol for 1 hr, washed 3 times with PBS, and incubated for 20 min in PBS containing 0.1% hydrogen peroxide and 1 mg/ml Hanker-Yates reagent. Following a second wash with PBS, the whole mounts were mounted on glass slides, cover-slipped, and viewed on an optical microscope. Myeloperoxidase containing leukocytes were counted in 6 to 8 adjacent 200× optical fields of view and the mean cell counts were calculated and recorded.

## CC[C@H](C)[C@H](NC(=O)[C@H](Cc1ccccc1)NC(=O)[C@H](CC(=O)O)NC(=O)[C@H](CCCNC(=N)N)NC(=O)[C@H](C)NC(=O)[C@H](C)NC(=O)[C@H](CC(C)C)NC(=O)[C@H](CC(N)=O)NC(=O)[C@H](CC(=O)O)NC(=O)[C@H](CC(C)C)NC(=O)[C@@H](NC(=O)[C@@H](NC(=O)[C@H](CC(N)=O)NC(=O)[C@H](CCSC)NC(=O)[C@H](CCC(=O)O)NC(=O)[C@H](CC(=O)O)NC(=O)[C@H](CO)NC(=O)[C@H](Cc1ccccc1)NC(=O)[C@H](CO)NC(=O)CNC(=O)[C@H](CC(=O)O)NC(=O)CNC(=O)[C@@H](N)Cc1c[nH]cn1)[C@@H](C)O)[C@@H](C)CC)C(=O)N[C@@H](CC(N)=O)C(=O)N[C@@H](Cc1c[nH]c2ccccc12)C(=O)N[C@@H](CC(C)C)C(=O)N[C@H](C(=O)N[C@@H](CCC(N)=O)C(=O)N[C@H](C(=O)N[C@@H](CCCCN)C(=O)N[C@H](C(=O)N[C@H](C(=O)N[C@@H](CC(=O)O)C(=O)O)[C@@H](C)O)[C@@H](C)CC)[C@@H](C)O)[C@@H](C)CC [SEQ ID NO: 3, GLP-2(A2G), reference compound]
[1]; 2.5 mg/kg (13.3 nmole), p<0.0001
  increase in mucosal wet weight: statistically significant increase
[2]
  SEC-SLS elution / association state of peptides: overlapping dimer and monomer peaks
[3]
  Helix: 20.7%
  Random coil: 37.1%
[4]; listed as A2G-GLP-2
  upper gastrointestinal transit: acceleration of upper gastrointestinal transit
[4]; listed as A2G-GLP-2 peptide
  upper gastrointestinal transit: significant acceleration of intestinal transit

## SEQ ID NO: 5: A2G GLP-2 mimetibody, IgG4 Hg-CH2-CH3 with S228P and P234A/L235A
[1]; 0.8 mg/kg (0.26 nmole), p<0.0001
  increase in mucosal wet weight vs control mimetibody: statistically significant
[1]; 8 mg/kg (2.6 nmole), p<0.0004
  increase in mucosal wet weight vs control mimetibody: statistically significant
[1]; female CD1 mice, daily s.c. for 10 days, dose response
  mucosal wet weight (mucosal scrapings): dose dependant increase; also recorded: dose-dependent increase
[1]; on a molar basis
  effective in vivo dose lower than A2G GLP-2 peptide: 50 fold
[5]; CD1 mice, 3 mg/kg intravenously or subcutaneously, TRF active mimetibody
  calculated half-life: 26.5 h
[5]; mimetibody in mice vs GLP-2 peptide in humans
  half-life higher than that of the GLP-2 peptide: more than 200 fold
[6]; 4 mg/kg every day or every other day, 11 days
  mucosal weight difference to control mimetibody: more pronounced
[6]; 4 mg/kg once per week, 11 days
  mucosal weight compared to control mimetibody: significantly increased mucosal weight
[6]; 4 mg/kg, all regimens except the single dose
  duodenum and jejunum section wet weight over control mimetibody: significant increase in weight
[7]; listed as A2G GLP-2 mimetibody
  upper gastrointestinal transit: significant acceleration of intestinal transit
[7]; listed as GLP-2 mimetibody
  upper gastrointestinal transit: acceleration of upper gastrointestinal transit
[7]; single injection 4 days before, scale of 1 to 15, normal mice GC=6
  Geometric Center (GC): 7.5
[8]
  SEC-SLS association state of mimetibodies: dimer

B1: SEQ ID NO: 80: human A2G-GLP2 peptide in murine IgG2a scaffold (protein)
chain: HGDGSFSDEMNTILDNLAARDFINWLIQTKITDGSGGGSGTTVTVSAEPRGPTIKPCPPCKCPAPNAAGGPSVFIFPPKIKDVLMISLSPIVTCVVVDVSEDDPDVQISWFVNNVEVHTAQTQTHREDYNSTLRVVSALPIQHQDWMSGKEFKCKVNNKDLPAPIERTISKPKGSVRAPQVYVLPPPEEEMTKKQVTLTCMVTDFMPEDIYVEWTNNGKTELNYKNTEPVLDSDGSYFMYSKLRVEKKNWVERNSYSCSVVHEGLHNHHTTKSFSRTPGK
modifications: Human A2G-GLP2 peptide in murine IgG2a scaffold
[9]; listed as murine A2G GLP-2 mimetibody
  gastrointestinal transit after abdominal surgery: significant attenuation of the delay in gastrointestinal transit
[9]; listed as murine A2G-GLP-2 mimetibody
  gastrointestinal transit after abdominal surgery: significant improvement in transit
[10]
  number of MPO-positive leukocytes infiltrating small intestinal muscle layer: significantly reduced the number of infiltrating cells
